Data: patent US20230287083A1, “CD1 PEPTIDE-EPITOPE FOR USE IN THE TREATMENT OF A DISEASE CAUSED BY AN INT[…]” (priority 2020, published 2023)
Residues, ends and D or L forms follow the SMILES beside them.

Key:
[1] = system: HSV; assay: Cellular immune response towards live-attenuated HSV vaccine after peptide pre-immunization; format: in vivo, BALB/c mice; details: one month after last injection
Method: BALB/c mice are immunized in footpath with 100 μg of peptide of SEQ ID NO:5 emulsified in complete Freund's adjuvant, and this injection is repeated once after an interval of 2 weeks, the second injection being made in incomplete Freund's adjuvant. A control group of BALB/c mice is treated with adjuvant alone.
All mice then receive a commercial preparation of live-attenuated HSV on 2 occasions separated by one month.
One month after the last injection, the immune response towards the vaccine is compared between the 2 groups.

[2] = system: NS5; assay: NS5-specific activation of splenic CD3+ lymphocytes (3H-thymidine incorporation) after peptide pre-injection and NS5 vaccination; format: in vivo, C57BL/6 mice
Method: (§1) Peptide of SEQ ID NO:1 is emulsified in complete Freund's adjuvant and injected subcutaneously at a dose of 100 μg in a series of C57BL/6 mice, followed after 2 weeks by the same injection in incomplete Freund's adjuvant. A control group is injected according to the same schedule with adjuvant alone.
(§2) Two weeks after the last injection both groups of mice are treated by a subcutaneous injection of NS5 protein in alum, repeated every 2 weeks four times.
(§3) The spleen of all mice is obtained one month after the last injection and the population of CD3+ lymphocytes isolated by FACS sorting.
Cells are then maintained in culture in the presence of antigen-presenting cells loaded with NS5 and the proportion of activated cells numbered after 6 days by incorporation of 3H-thymidine.

[3] = system: NS5; assay: Detection of NS5-specific NKT cells (PLZF staining) with JAWS2 presenting cells; format: in vivo, C57BL/6 mice; details: CD3+ cells incubated with JAWS2 presenting cells
Method: as §1, §2, §3
In parallel experiments CD3+ cells are incubated with JAWS2 as presenting cells.

[4] = system: NS5; assay: Same NS5 experiment repeated in BALB/c mice; format: in vivo
[5] = system: SARS-CoV-2 S protein; assay: Splenocyte immune response towards S protein after peptide pretreatment and S protein immunization; format: in vivo, C57BL/6 mice
Method: (§4) Peptide of SEQ ID NO:3 is used to immunize C57BL/6 mice at a dose of 100 μg emulsified in complete Freund's adjuvant, followed by a second injection of 100 μg in incomplete Freund's adjuvant 3 weeks later. A control group receives only the adjuvant.
(§5) Both groups of mice are then immunized with 100 μg of S protein in alum, administered at 2-week intervals, starting 3 weeks after injection of peptide of SEQ ID NO:3 (or adjuvant), for a total of 4 injections at 2 weeks interval.
(§6) The immune response towards S protein is then evaluated on splenocytes retrieved either 2 or 6 months after the last injection and titers of specific antibodies are evaluated on serum.

[6] = system: SARS-CoV-2 S protein; assay: Specific anti-S protein antibody titers and isotypes in serum; format: in vivo, C57BL/6 mice; details: for specific anti-S protein antibody titers: vs control
Method: as §4, §5, §6

[7] = system: Coxsackie B4-V; assay: Coxsackie B4-V infection, pancreas cellular infiltration / pancreatitis; format: in vivo, BALB/c mice
Method: BALB/c mice are immunized by footpath injection of 100 μg of peptide of SEQ ID NO:2 emulsified in Freund's adjuvant, on 2 occasions at a 2-weeks interval. A control group is injected with the adjuvant alone.
All mice are then immunized with the full polyprotein adsorbed on alum, using 100 μg per injection, for a total of 4 injections administered at an interval of 2 weeks.
Three weeks after the last injection, all mice are infected with 50 PFU of the B4-V strains in peritoneum.
Within 3 days after infection, the pancreas of 50% of the mice is isolated and examined for cellular infiltration. All mice in the control group show massive infiltration by mononuclear cells in the acini.

[8] = system: hemagglutinin from influenza A virus; design: species or system C57BL/6 mice; details: mouse, in vivo
[9] = system: hemagglutinin from influenza A virus; design: species or system C57BL/6 mice; details: mouse, in vivo; remark: listed apart in the source
[10] = system: hemagglutinin from influenza A virus; design: species or system C57BL/6 mice; details: mouse, in vivo; remark: listed apart in the source
[11] = C57BL/6, vs adjuvant-only control

## CC(C)C[C@H](NC(=O)[C@H](Cc1c[nH]cn1)NC(=O)[C@H](CC(C)C)NC(=O)[C@H](Cc1ccccc1)NC(=O)[C@H](CC(C)C)NC(=O)[C@@H](N)C(C)C)C(=O)N[C@@H](Cc1ccc(O)cc1)C(=O)N[C@@H](CC(C)C)C(=O)N[C@@H](Cc1ccccc1)C(=O)N[C@@H](CC(C)C)C(=O)N[C@H](C(=O)O)[C@@H](C)O [peptide of SEQ ID NO:5, VL-FLHLYLF-LT] (H-VLFLHLYLFLT-OH)
[1]
  cells sharing a cytotoxicity potential (CD8+ T cells, NK cells, NKT cells): significant expansion

## AG-HGQVDNF-SL [peptide of SEQ ID NO:1]
[2]; C57BL/6, 100 μg peptide s.c. in CFA then IFA before NS5 in alum, vs adjuvant-only control
  total number of NS5-specific cells: significantly higher
[2]; [11]
  number of NS5-specific CD4 cells: higher number is observed
  number of NS5-specific CD8 cells: highly significant
[2]; C57BL/6 and BALB/c, large variations in control groups
  variation in numbers of CD4, CD8 and NKT cells between individuals and between strains: very little variation
[3]
  NS5-specific NKT cells detected by PLZF staining: found only in the group of mice which has been pre-sensitized with peptide of SEQ ID NO:1
[4]
  result of the same experiment in BALB/c mice: essentially the same results

## ATR FASVYAW NRK (FASVYAWNRK) [peptide of SEQ ID NO:3]
[5]; 2 months after last injection, reverse in control group
  number of CD8+ T cells relative to CD4+ T cells: outweigh the number of CD4+ T cells
[5]; 6 months after last injection
  number of CD8+ T cells relative to CD4+ T cells: same trend towards preferential CD8+ T cells
[5]; vs control mice
  numbers of CD3+ lymphocytes towards protein S: significantly higher numbers
[6]; 2 months after end of immunization
  specific anti-S protein antibody titers: significantly higher titers
[6]; 2 months, vs control group
  isotypic distribution of anti-S protein antibodies: dramatic shift from IgG1 in the control group towards IgG2a
[6]; 6 months after end of immunization
  specific anti-S protein antibody titers: significantly higher titers
[6]; after 6 months
  isotypic distribution of anti-S protein antibodies: shift was maintained

## EK-FRDIRGF-LA [peptide of SEQ ID NO:2]
[7]; day 10 after infection, control: persisting infiltration, disappearance of acini structure
  pancreatitis signs: complete resolution of pancreatitis signs
[7]; within 3 days after infection with 50 PFU B4-V, control: massive infiltration
  pancreas cellular infiltration by mononuclear cells in the acini: moderate infiltration

## GL-FGAIAGF-IE [peptide of SEQ ID NO:4]
[8]
  type of immune response towards hemagglutinin (CD8+, NK and NKT cells): dominated by a Th1-like and cytotoxic response
[9]
  ratio of IFN-gamma over IL-4 production: high ratio of IFN-gamma over IL-4
[10]
  isotype distribution of anti-hemagglutinin antibodies in serum: high concentrations of IgG2a
